Entries after “also recorded” stand apart in the source; their conditions may differ. Where two headings read alike, the source gives them in different places.
How the values were obtained:
male rats = conditions: rat, in vivo
Experimental: Veratridine was injected intra-plantar at 30 micrograms.
Known preclinical and clinical analgesics were tested to see if they could prevent veratridine-induced behaviors.

NaV1.7 [1] = format: in vivo, mouse; conditions: for Flinching response to paw injection: one microgram
From the text: Activation of one, some, or all of the nine sodium channel isoforms might produce painful behaviors. […] All behavioral experiments were done with the observer blinded as to the mouse genotype or treatment.

male CD1 mice = format: in vivo, mouse
NaV1.6 = NaV1.6 (Rattus norvegicus, UniProt O88420); conditions: read-out: TTX IC50; cited from earlier work
NaV1.3 = NaV1.3 (Rattus norvegicus, UniProt P08104); conditions: read-out: TTX IC50; cited from earlier work
Chain of NaV1.3 (P08104 whole entry, looked up): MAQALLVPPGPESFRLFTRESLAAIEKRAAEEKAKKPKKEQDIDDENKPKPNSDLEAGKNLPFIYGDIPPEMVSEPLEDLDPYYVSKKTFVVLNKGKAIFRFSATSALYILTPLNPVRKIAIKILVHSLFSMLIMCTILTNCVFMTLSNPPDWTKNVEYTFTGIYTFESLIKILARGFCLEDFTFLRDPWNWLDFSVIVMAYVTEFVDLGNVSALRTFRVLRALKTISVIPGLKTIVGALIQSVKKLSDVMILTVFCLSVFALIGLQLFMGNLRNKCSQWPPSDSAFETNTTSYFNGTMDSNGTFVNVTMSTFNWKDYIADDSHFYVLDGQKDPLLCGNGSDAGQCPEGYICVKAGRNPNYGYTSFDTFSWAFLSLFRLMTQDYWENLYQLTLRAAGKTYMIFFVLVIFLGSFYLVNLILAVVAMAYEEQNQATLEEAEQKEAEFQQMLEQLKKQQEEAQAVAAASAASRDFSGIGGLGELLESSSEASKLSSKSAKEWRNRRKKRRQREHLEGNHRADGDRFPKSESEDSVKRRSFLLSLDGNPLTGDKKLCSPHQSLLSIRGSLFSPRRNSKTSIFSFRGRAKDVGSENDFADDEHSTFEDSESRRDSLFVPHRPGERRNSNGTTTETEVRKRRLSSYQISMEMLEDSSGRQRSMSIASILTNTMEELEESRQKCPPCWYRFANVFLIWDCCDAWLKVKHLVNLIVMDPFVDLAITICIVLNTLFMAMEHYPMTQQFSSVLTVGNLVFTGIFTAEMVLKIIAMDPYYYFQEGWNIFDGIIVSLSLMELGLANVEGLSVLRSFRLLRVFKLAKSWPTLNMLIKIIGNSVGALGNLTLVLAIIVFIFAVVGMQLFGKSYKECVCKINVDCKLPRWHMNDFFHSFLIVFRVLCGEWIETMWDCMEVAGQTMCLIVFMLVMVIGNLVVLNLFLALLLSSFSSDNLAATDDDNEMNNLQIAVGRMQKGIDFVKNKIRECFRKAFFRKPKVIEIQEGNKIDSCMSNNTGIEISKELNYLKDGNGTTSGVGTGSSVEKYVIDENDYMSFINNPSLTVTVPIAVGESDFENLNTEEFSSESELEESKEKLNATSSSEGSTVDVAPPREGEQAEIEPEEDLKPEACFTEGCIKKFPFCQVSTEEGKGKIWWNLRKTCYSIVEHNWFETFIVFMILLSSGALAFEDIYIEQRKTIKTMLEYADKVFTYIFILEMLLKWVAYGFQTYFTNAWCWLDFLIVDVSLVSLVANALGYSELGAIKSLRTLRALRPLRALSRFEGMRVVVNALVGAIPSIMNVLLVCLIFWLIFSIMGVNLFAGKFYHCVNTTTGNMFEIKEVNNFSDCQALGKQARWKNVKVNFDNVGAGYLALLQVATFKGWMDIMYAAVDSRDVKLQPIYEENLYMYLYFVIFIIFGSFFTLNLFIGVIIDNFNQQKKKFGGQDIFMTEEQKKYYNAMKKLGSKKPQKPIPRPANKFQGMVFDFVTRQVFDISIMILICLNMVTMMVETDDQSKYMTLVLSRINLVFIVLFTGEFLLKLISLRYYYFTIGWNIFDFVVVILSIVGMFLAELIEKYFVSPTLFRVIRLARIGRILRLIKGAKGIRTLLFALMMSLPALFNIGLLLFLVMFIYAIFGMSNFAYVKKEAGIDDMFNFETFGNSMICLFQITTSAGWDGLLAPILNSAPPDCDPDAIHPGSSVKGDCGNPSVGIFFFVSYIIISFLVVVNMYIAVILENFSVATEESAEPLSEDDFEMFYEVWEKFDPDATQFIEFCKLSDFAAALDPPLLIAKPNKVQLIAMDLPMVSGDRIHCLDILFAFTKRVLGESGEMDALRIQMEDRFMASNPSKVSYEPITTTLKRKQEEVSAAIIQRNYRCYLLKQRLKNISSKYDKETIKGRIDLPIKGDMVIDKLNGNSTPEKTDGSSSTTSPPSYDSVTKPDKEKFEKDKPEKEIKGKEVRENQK

NaV1.7 [2] = target: NaV1.7 (Rattus norvegicus, UniProt O08562); conditions: read-out: TTX IC50; cited from earlier work
NaV1.8 = NaV1.8 (Rattus norvegicus, UniProt Q62968); conditions: read-out: TTX IC50; cited from earlier work
NaV1.4 = NaV1.4 (Rattus norvegicus, UniProt P15390); conditions: read-out: TTX IC50; cited from earlier work
hNaV1.7 = hNaV1.7 (Homo sapiens, UniProt Q15858)
Chain of hNaV1.7 (Q15858 whole entry): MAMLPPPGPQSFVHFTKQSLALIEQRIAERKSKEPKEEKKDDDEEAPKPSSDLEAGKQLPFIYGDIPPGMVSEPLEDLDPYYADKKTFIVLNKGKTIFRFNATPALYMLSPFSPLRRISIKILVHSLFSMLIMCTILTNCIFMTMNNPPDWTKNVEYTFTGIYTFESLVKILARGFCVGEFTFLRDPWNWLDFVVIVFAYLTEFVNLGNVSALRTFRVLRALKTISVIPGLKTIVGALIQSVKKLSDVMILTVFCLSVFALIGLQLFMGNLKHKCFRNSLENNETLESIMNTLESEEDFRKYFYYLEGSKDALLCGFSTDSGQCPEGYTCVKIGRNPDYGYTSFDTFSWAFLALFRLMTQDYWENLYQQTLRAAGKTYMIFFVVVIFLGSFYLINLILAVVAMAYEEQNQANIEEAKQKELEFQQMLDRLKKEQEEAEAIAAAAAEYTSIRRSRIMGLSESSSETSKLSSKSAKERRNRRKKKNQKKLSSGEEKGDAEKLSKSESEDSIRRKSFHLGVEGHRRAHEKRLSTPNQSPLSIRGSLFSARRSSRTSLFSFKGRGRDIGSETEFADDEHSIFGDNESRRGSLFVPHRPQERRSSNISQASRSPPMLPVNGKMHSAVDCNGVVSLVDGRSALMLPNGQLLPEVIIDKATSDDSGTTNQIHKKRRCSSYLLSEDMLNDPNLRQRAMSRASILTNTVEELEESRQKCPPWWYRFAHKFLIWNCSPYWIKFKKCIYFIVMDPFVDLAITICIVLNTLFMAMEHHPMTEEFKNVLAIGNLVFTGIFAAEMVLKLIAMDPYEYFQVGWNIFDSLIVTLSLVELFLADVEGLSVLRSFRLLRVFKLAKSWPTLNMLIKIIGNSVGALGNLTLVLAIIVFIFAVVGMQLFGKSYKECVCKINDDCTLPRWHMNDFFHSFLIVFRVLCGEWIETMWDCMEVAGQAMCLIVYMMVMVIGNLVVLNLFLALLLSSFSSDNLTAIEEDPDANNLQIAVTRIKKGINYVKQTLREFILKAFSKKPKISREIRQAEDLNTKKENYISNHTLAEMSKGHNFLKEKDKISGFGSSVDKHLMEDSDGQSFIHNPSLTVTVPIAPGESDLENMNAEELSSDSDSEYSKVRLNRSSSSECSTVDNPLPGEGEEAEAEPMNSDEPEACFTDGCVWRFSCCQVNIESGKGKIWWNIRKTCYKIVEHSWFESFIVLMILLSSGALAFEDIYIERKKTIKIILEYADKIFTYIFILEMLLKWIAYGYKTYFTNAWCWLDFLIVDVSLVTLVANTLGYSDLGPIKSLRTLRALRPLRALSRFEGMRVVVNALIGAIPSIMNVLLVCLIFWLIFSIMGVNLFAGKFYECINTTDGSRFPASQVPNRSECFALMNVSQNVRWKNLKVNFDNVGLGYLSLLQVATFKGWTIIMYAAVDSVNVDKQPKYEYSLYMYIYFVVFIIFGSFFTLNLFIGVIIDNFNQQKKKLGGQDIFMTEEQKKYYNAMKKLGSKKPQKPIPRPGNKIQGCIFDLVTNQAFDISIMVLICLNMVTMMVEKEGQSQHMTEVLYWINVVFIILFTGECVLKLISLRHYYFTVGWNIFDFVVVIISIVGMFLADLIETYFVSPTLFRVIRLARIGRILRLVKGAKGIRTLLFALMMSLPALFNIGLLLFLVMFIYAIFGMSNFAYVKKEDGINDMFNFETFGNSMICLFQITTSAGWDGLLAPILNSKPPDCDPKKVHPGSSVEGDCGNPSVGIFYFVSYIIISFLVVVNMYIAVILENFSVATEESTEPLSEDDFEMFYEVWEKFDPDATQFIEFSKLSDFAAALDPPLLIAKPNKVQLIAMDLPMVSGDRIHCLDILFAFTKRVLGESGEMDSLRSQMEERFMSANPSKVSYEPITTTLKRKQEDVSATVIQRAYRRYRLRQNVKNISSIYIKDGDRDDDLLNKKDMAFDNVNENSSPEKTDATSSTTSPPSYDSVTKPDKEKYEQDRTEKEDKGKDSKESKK

SMILES: CN1C(=O)CN=C(c2ccccc2)c2cc(Cl)ccc21 [Diazepam]
- Inhibition of veratridine-induced pain-like behaviors (licking and paw-flinching) (male rats): ineffective
- Significant Reversal of Edema (male rats): No
- Significant Reversal of Flinching (male rats): No
- Significant Reversal of Lifting (male rats): No

SMILES: CNCC[C@H](Oc1cccc2ccccc12)c1cccs1 [Duloxetine, duloxetine]
- Inhibition of veratridine-induced pain-like behaviors (licking and paw-flinching) (male rats): inhibited somewhat
- Significant Reversal of Edema (male rats): No

SMILES: NCC1(CC(=O)O)CCCCC1 [Gabapentin, gabapentin]
- Inhibition of veratridine-induced pain-like behaviors (licking and paw-flinching) (male rats): not all
- Significant Reversal of Edema (male rats): No

SMILES: Cc1cccc(C)c1OCC(C)N (stereo not shown) [Mexiletine, mexiletine]
- Prevention of veratridine-induced flinching / lifting/licking (NaV1.7 [1]; mouse, in vivo): prevents the flinching behavior; also recorded: prevented flinching
- Inhibition of veratridine-induced pain-like behaviors (licking and paw-flinching) (male rats): inhibited fully
- Significant Reversal of Edema (male rats): Yes
- Significant Reversal of Flinching (male rats): Yes
- Significant Reversal of Lifting (male rats): Yes
- Lifting and flinching behaviors (male rats; po): prevented in a dose-dependent manner
- Block of effects of veratridine (total lifting time) (male CD1 mice; mouse, in vivo, ip, 30 mg/kg): blocked
- Prevention of lifting/licking response to deltamethrin (male CD1 mice; mouse, in vivo, ip, 30 mg/kg): prevented the lifting/licking response
- Prevention of lifting/licking response to grayanotoxin III (male CD1 mice; mouse, in vivo, ip, 30 mg/kg): prevented the lifting/licking response

SMILES: CN1CC[C@]23c4c5ccc(O)c4O[C@H]2[C@@H](O)C=C[C@H]3[C@H]1C5 [Morphine, morphine]
- Inhibition of veratridine-induced pain-like behaviors (licking and paw-flinching) (male rats): inhibited somewhat
- Significant Reversal of Edema (male rats): No

SMILES: COc1ccc2cc([C@H](C)C(=O)O)ccc2c1 [Naproxen, naproxen]
- Significant Reversal of Edema (male rats): No

SMILES: NC1=N[C@H](O)[C@H]2[C@H]3O[C@]4(O)O[C@@H]([C@@H](O)[C@@]2(N1)[C@@H]4O)[C@]3(O)CO [TTX, tetrodotoxin]
- IC50 (NaV1.6): 1 nM
- IC50 (NaV1.3): 2 to 15 nM
- IC50 (NaV1.7 [2]): 4 nM
- IC50 (NaV1.8): > 50000 nM
- IC50 (NaV1.4): 5 nM

SMILES: CC1(C)[C@H](C(=O)O[C@H](C#N)c2cccc(Oc3ccccc3)c2)[C@@H]1C=C(Br)Br [deltamethrin]
- Lifting/licking response (total flinches) after injection (male CD1 mice; male CD1 mice, 10 microgram suspension dose of deltamethrin): produced a lifting/licking response

SMILES: CC1(O)CC23CC(O)C4(O)C(CC(O)C4(C)C)C(C)(O)C2CCC1C3O (stereo not shown) [grayanotoxin III]
- Lifting/licking response (total flinches) after injection (male CD1 mice; mouse, in vivo): produced a lifting/licking response
- Activation of hNaV1.7 (hNaV1.7): activated hNaV1.7; also recorded: activated NaV1.7
- Voltage at which sodium currents start to activate (hNaV1.7): −95 mV

SMILES: COc1ccc(C(=O)O[C@H]2CC[C@@]3(C)[C@@H]4CC[C@@H]5C3(C[C@@]3(O)[C@@H]6CN7C[C@@H](C)CC[C@H]7[C@@](C)(O)[C@@]6(O)[C@@H](O)C[C@@]53O)O[C@]24O)cc1OC [veratridine, 4α,9-Epoxy-3β-veratroyloxy-5β-cevan-4β,12,14,16β,17,20-hexaol]
- Flinching response to paw injection (NaV1.7 [1]; global NaV1.7 knockout mice): no flinching or licking behavior; also recorded: no effect; also recorded: no response
- Flinching response to paw injection (NaV1.7 [1]; wild type heterozygote mice): robust flinching behavior; also recorded: robust flinching response
- Pain-related behaviors (paw lifting/licking, flinching) after injection into the paw (male rats): caused two separate pain-related behaviors
- Side effects at higher doses (male rats): variable neurological side effects
- Lifting behavior after i.pl. injection (male CD1 mice; mouse, in vivo): caused equivalent lifting behavior
